The assay concerns the target DNA gyrase A/A/B/B tetramer (Escherichia coli (strain K12), UniProt P0AES4+P0AES6). As to the kind of experiment: In vitro antibacterial activity was determined as inhibitory concentration causing 50% DNA-gyrase supercoiling inhibition (SCI).

The IC50 is the concentration needed to halve the response being measured. Low readings indicate greater potency in that assay, high ones weaker potency in that assay. Turning to `C[C@H]1COc2c(N3CCN(C)CC3)c(F)cc3c(=O)c(C(=O)O)cn1c23` [9-fluoro-3-methyl-10-(4-methylpiperazin-1-yl)-7-oxo-2,3-dihydro-7H-[1,4]oxazino[2,3,4-ij]quinoline-6-carboxylic acid], the midpoint of inhibition, the IC50, lay at 4.98 µM.
